How the values were obtained:
[1] = system: AR42J (pancreatic cancer) cells; test: MTT cytotoxicity assay; assay type: cell-based, human
Procedure: (§1) This study included three epithelial cancerous (AR42J, pancreatic cancer; HeLa, cervical cancer, and MDA‐MB‐231 breast cancer) and two noncancerous epithelial human cells (ARPE‐19, retina; and MCF10A, breast). AR42J (ECACC, Cat No. 93100618) and MDA‐MB‐231 (ATCC, Cat No. HTB‐26) cells were cultured in RPMI media. HeLa cells (ATCC, Cat No. CCl‐2) were cultured in EMEM media. ARPE‐19 (ATCC, Cat No. CRL‐2302) and MCF10A (ATCC, Cat No. CRL‐10317) cells were cultured in DMEM. Each medium consisted of penicillin–streptomycin (1%) and fetal bovine serum (10%). Cells were cultured in a 37°C incubator with 5% CO2 humidification. Cells were cultured in 96‐well plates as 10.000 cells per well. After they reached at 80% confluency, cells were treated with extracts. For this, experiments for each cell included two groups, (1) treated with T. coelesyriacus extracts obtained by methanol for 24 h, 48 h, and 72 h at 3.125, 6.25, 12.5, 25, […], 100, and 200 μg/mL, and (2) treated with T. coelesyriacus extracts obtained by water for 24 h, 48 h, and 72 h at 3.125, 6.25, 12.5, 25, […], 100, and 200 μg/mL. Control wells for each cell were untreated (0 μg/mL). Positive control experiments were performed with cisplatin at the same concentrations with extracts (3.125–100 μg/mL) for 24 h, 48 h, and 72 h. For each dose at each concentration, at least three wells were used as intra‐experimental repeats. The whole experiments for each cell were repeated as two to three independent replications.
(§2) After treatment with different extracts (at 3.125, 6.25, 12.5, 25, 50, 100, and 200 μg/mL for 24 h, 48 h, and 72 h), media with extracts were removed, and the MTT protocol was applied as before (Cakmak et al., [2021]). MTT was also applied after cisplatin treatment for 24 h, 48 h, and 72 h. The concentrations of cisplatin used were 3.125, 6.25, 12.5, 25, 50, and 100 μg/mL. In this method, 200 μL of media, including 10 μL MTT (3‐(4,5‐dimethylthiazol‐2‐yl)‐2,5‐diphenyltetrazolium bromide), was added to each well and incubated at 37°C for 2.5 h. After incubation, media with MTT were removed, and 150 μL of DMSO was added to each well for dissolving formazan crystals. Subsequently, plates were incubated in the dark on a shaker for 1 h. Absorbances at 570 nm were read. Cell viabilities (as percentages) were calculated according to the viability of untreated cells considered as 100%. If applicable, IC50 values were calculated as before (Uzuner et al., [2021]).

[2] = system: ARPE‐19 (retinal epithelial) cells; test: MTT cytotoxicity assay; assay type: cell-based, human; conditions: ARPE19 normal cells
Procedure: as §1, §2

[3] = system: HeLa (cervical cancer) cells; test: MTT cytotoxicity assay; assay type: cell-based, human
Procedure: as §1, §2

[4] = system: MCF10A (breast epithelial) cells; test: MTT cytotoxicity assay; assay type: cell-based, human; conditions: MCF10A normal cells
Procedure: as §1, §2

[5] = system: MDA‐MB‐231 (breast cancer) cells; test: MTT cytotoxicity assay; assay type: cell-based, human
Procedure: as §1, §2

HeLa cells = system: HeLa cells; set-up: method as in Liu et al., 2008; conditions: 25 μg/mL for 72 h, ref Liu et al., 2008; cited from earlier work

## N.N.[Cl][Pt][Cl] [cisplatin]
[1]; 24 h incubation
  IC50 value: 18.94 µg/mL
[1]; 48 h incubation
  IC50 value: 14.84 µg/mL
[1]; 72 h incubation
  IC50 value: 6.18 µg/mL
[2]; 24 h
  Ave IC50 values: 63.42 µg/mL
[2]; 48 h
  Ave IC50 values: 54.14 µg/mL
[2]; 72 h
  Ave IC50 values: 16.01 µg/mL
[3]; 24 h
  Ave IC50 values: 8.16 µg/mL
[3]; 48 h
  Ave IC50 values: 13.92 µg/mL
[3]; 72 h incubation
  IC50 value: 4.56 µg/mL
[4]; 24 h
  Ave IC50 values: 33.56 µg/mL
[4]; 48 h
  Ave IC50 values: 26.03 µg/mL
[4]; 72 h
  Ave IC50 values: 8.32 µg/mL
[5]; MDA‐MB‐231, 24 h
  Ave IC50 values: 41.28 µg/mL
[5]; MDA‐MB‐231, 48 h
  Ave IC50 values: 27.87 µg/mL
[5]; MDA‐MB‐231, 72 h incubation
  IC50 value: 10.92 µg/mL
HeLa cells
  cell death: ~90%

From PMC11521691, “Elucidating the antimicrobial and anticarcinogenic potential of methanolic and water extracts of edible Tragopogon coelesyriacus Boiss” (Food Science & Nutrition, 2024)
